In patent US20260092061A1, “COMPOUNDS FOR TARGETED PROTEIN DEGRADATION” (Amphista Therapeutics Limited, priority 2022, published 2026):

Legend:
BRD9 [1] = molecular target: T1, BRD9 (Homo sapiens, UniProt Q9H8M2); assay: Degradation of BRD9 (IF), immunofluorescence in MV4-11 cells, 24 hours (Assay Protocol 2); format: cell-based; parameters: A suspension of MV4-11 cells (ATCC CRL-9591) was prepared; host or cells: MV4-11; conditions: BRD9 degradation; for DC50: Assay protocol 2, read-out: DC50; for Dmax: MV4-11, Assay protocol 2, read-out: Dmax
T1 sequence (Q9H8M2 1-597): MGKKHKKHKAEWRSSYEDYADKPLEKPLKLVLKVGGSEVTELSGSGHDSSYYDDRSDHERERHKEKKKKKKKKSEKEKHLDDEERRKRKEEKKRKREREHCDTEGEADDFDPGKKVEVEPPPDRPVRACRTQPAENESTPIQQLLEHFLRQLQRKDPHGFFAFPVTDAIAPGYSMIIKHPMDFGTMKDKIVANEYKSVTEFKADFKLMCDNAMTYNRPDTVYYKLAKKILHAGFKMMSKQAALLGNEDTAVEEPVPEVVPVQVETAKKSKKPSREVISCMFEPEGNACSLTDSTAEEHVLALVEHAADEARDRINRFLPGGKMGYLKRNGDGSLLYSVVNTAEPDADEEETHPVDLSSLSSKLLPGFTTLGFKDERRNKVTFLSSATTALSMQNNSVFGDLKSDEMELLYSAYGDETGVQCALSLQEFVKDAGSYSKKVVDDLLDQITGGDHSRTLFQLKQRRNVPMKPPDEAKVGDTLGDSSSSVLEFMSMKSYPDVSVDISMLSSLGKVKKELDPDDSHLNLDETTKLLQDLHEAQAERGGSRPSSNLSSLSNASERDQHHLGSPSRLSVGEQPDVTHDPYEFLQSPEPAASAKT
Procedure, shortened: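 % BRD9 remaining, scaled between DMSO (high) and 100 nM CFT-8634 (low) control wells, derives from mean Alexa 647 contrast in central nuclei by high-content imaging. MV4-11 cells had 24 h compound exposure at 37° C. before PFA fixation, Triton permeabilisation and anti-BRD9 E4Q3F immunostaining.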

BRD9 [2] = molecular target: T1, BRD9; assay: BRD9 degradation, HiBiT-BRD9 KI HEK293 (LgBiT) cells, NanoGlo Lytic Endpoint assay (Assay Protocol 1); format: cell-based; conditions: Assay protocol 1, BRD9 degradation; for DC50: read-out: DC50; for Dmax: HEK293, read-out: Dmax
Procedure, shortened: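 HiBiT-tagged BRD9 knock-in HEK293 (LgBiT) cells exposed to compounds for 6 h at 37 °C, 5% CO2. Residual BRD9 measured by HiBiT lytic luminescence. % BRD9 remaining normalised to DMSO-treated cells (high) and no-cell wells (low).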

Compound | DC50 (BRD9 [1]) [nM] | Dmax (BRD9 [1]) [%] | DC50 (BRD9 [2]) [nM] | Dmax (BRD9 [2]) [%]
COc1cc(-c2cn(C)c(=O)c(C)c2C)cc(OC)c1CN1CCN(c2cccc(C3CCCN3C(=O)/C(C#N)=C/C(C)(C)C)c2)CC1 (mixture of isomers) [Compound B41, (E/Z)-2-(2-(3-(4-(2,6-dimethoxy-4-(1,4,5-trimethyl-4-oxo-1,6-dihydropyridin-3-yl)benzyl)piperazin-1-yl)phenyl)pyrrolidine-1carbonyl)-4,4-dimethylpent-2-enenitrile] | 10 to 25 | > 75 | 1.25 to 10 | > 75
COc1cc(-c2cn(C)c(=O)c(C)c2C)cc(OC)c1CN1CCN(c2ccc(C3CCCN3C(=O)/C(C#N)=C/C(C)(C)C)cc2)CC1 (mixture of isomers) [Compound B42, (E/Z)-2-(2-(4-(4-(2,6-dimethoxy-4-(1,4,5-trimethyl-6-oxo-1,6-dihydropyridin-3-yl)benzyl)piperazin-1-yl)phenyl)pyrrolidine-1-carbonyl)-4,4-dimethylpent-2-enenitrile] | – | 40 to 70 | 10 to 25 | 40 to 70
COc1cc(-c2cn(C)c(=O)c(C)c2C)cc(OC)c1CN1CCC(Oc2cccc3c2CCN(C(=O)/C(C#N)=C/C(C)(C)C)C3C)CC1 (mixture of isomers) [Compound B44, (E/Z)-2-(5-((1-(2,6-dimethoxy-4-(1,4,5-trimethyl-6-oxo-1,6-dihydropyridin-3-yl)benzyl)piperidin-4-yl)oxy)-1-methyl-1,2,3,4-tetrahydroisoquinoline-2-carbonyl)-4,4-dimethylpent-2-enenitrile] | < 1.25 | 40 to 70 | < 1.25 | > 75
COc1cc(-c2cn(C)c(=O)c(C)c2C)cc(OC)c1CN1CCN(Cc2cccc3c2CCN(C(=O)/C(C#N)=C/C24CC(C2)C4)C3C)CC1 (mixture of isomers) [Compound B45, (E/Z)-3-(bicyclo[1.1.1]pentan-1-yl)-2-(5-((4-(2,6-dimethoxy-4-(1,4,5-trimethyl-6-oxo-1,6-dihydropyridin-3-yl)benzyl)piperazin-1-yl)methyl)-1-methyl-1,2,3,4-tetrahydroisoquinoline-2-carbonyl)acrylonitrile] | < 1.25 | > 75 | < 1.25 | > 75
COc1cc(-c2cn(C)c(=O)c(C)c2C)cc(OC)c1C(=O)N1CCN(Cc2cccc(C3CCCN3C(=O)/C(C#N)=C/C(C)(C)C)c2)CC1 (mixture of isomers) [Compound B46, (E/Z)-2-(2-(3-((4-(2,6-dimethoxy-4-(1,4,5-trimethyl-6-oxo-1,6-dihydropyridin-3-yl)benzoyl)piperazin-1-yl)methyl)phenyl)pyrrolidine-1-carbonyl)-4,4-dimethylpent-2-enenitrile] | 1.25 to 10 | > 75 | 10 to 25 | > 75
COc1cc(-c2cn(C)c(=O)c(C)c2C)cc(OC)c1CN1CCN(Cc2cccc3c2CCN(C(=O)/C(C#N)=C/C(C)(C)C)C3C)C2(CC2)C1 (mixture of isomers) [Compound B47, (E/Z)-2-(5-((7-(2,6-dimethoxy-4-(1,4,5-trimethyl-6-oxo-1,6-dihydropyridin-3-yl)benzyl)-4,7-diazaspiro[2.5]octan-4-yl)methyl)-1-methyl-1,2,3,4-tetrahydroisoquinoline-2-carbonyl)-4,4-dimethylpent-2-enenitrile] | < 1.25 | > 75 | < 1.25 | > 75
COc1cc(-c2cn(C)c(=O)c(C)c2C)cc(OC)c1CN1CCN(Cc2cccc3c2CCN(C(=O)/C(C#N)=C/c2ncccc2C(F)(F)F)C3C)CC1 (mixture of isomers) [Compound B49, (E/Z)-2-(5-((4-(2,6-dimethoxy-4-(1,4,5-trimethyl-6-oxo-1,6-dihydropyridin-3-yl)benzyl)piperazin-1-yl)methyl)-1-methyl-1,2,3,4-tetrahydroisoquinoline-2-carbonyl)-3-(3-(trifluoromethyl)pyridin-2-yl)acrylonitrile] | 10 to 25 | 40 to 70 | < 1.25 | 40 to 70
